1 compound from paper PMC11210663 (Emerging Infectious Diseases, 2024) can be followed below.

In general, IC50 refers to the midpoint of a concentration-inhibition curve.

The test system of the assay is influenza A(H1N1)pdm09 viruses tested during the 2022–23 influenza season. The format is biochemical, influenza A(H1N1)pdm09 virus. As to conditions: read-out: NA inhibitors median IC50 2022–2023 (reference).

On to `CCC(CC)[C@H](NC(C)=O)[C@@H]1[C@H](O)[C@@H](C(=O)O)C[C@H]1N=C(N)N` [Peramivir, peramivir], for which the IC50 was determined as 0.07 nM.
